The values below come from patent US20070142635A1, “Process for preparing hexahydropyrimido[1,2-a]azepine-2-carboxylates and related compounds” (priority 2003, published 2007).

This assay concerns the target HIV integrase (Human immunodeficiency virus type 1 group M subtype B, UniProt P04585). The assay is described as follows: assay described in WO 02/30930 for inhibition of strand transfer in HIV integrase. The format is biochemical. The source says:
As is clear from the foregoing description, compounds embraced by Formula X or XI and precursors thereof are useful as intermediates in the preparation of Compounds XII, XIII and XIV, which are HIV integrase inhibitors useful, inter alia, in treating HIV infection.

Consider `CN(C)C(=O)C(=O)N(C)C1CCCCn2c1nc(C(=O)NCc1ccc(F)cc1)c(O)c2=O` (racemic) [Compound 14, N-(2-{[(4-fluorobenzyl)amino]carbonyl}-3-hydroxY4-oxo-4,6,7,8,9,10-hexahydropyrnidor[1,2-α]azepin-10-yl)-N,N′,N′-trimethylethanediamide], for which the “inhibition of strand transfer in HIV integrase” value is “exhibited activity”.
